# Source: patent publication US9309242B2, “Substituted pyrido[2,3-b]pyrazines as FGFR kinase inhibitors” (priority 2011, dated 2016)
# Structures can show the parent of a compound that is named as a salt.
# What was measured:
# FGFR1 (h) = FGFR1 (h) (Homo sapiens, UniProt P11362); experiment: FGFR1 (enzymatic assay), TR-FRET; format: biochemical; conditions: average values if tested multiple times, read-out: FGFR 1 pIC50 (converted)
# FGFR2 (h) = FGFR2 (h) (Homo sapiens, UniProt P21802); experiment: FGFR2 (enzymatic assay), TR-FRET; format: biochemical; conditions: enzymatic assay; average values if tested multiple times; read-out: FGFR 2 pIC50 (converted)
# Procedure, shortened: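 Kinase reaction in 50 mM HEPES pH 7.5 with 6 mM MnCl2, 1 mM DTT, 0.1 mM Na3VO4 and 0.01% Triton-X-100 contained FGFR2 (h) at 150 ng/ml. Biotinylated Flt3 peptide (500 nM) served as substrate with 0.4 μM ATP, compound added in 1% DMSO final.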
# FGFR3 (h) = FGFR3 (h) (Homo sapiens, UniProt P22607); experiment: FGFR3 (enzymatic assay), TR-FRET; format: biochemical; conditions: average values if tested multiple times, read-out: FGFR 3 pIC50 (converted)
# From the text: Time-Resolved Fluorescence Resonance Energy Transfer (TR-FRET) signal (ex340 nm.
# FGFR4 (h) = FGFR4 (h) (Homo sapiens, UniProt P22455); experiment: FGFR4 (enzymatic assay), TR-FRET; format: biochemical; conditions: FGFR 4 pIC50, enzymatic assay; average values if tested multiple times
# KDR (h) = KDR (h) (Homo sapiens, UniProt P35968); experiment: KDR (VEGFR2) (enzymatic assay), TR-FRET; format: biochemical; conditions: average values if tested multiple times, read-out: VEGFR 2 (KDR) pIC50 (converted)
# Procedure, shortened: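 Enzyme at 150 ng/ml was incubated 120 min at room temperature with 500 nM Btn-Flt3 peptide and 3 μM ATP in 50 mM HEPES pH 7.5, 6 mM MnCl2, 1 mM DTT, 0.1 mM Na3VO4, 0.01% Triton-X-100, 1% DMSO final. EDTA stop with Eu-anti-P-Tyr/SA-XL-665, 60 min; TR-FRET read in RFU.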
# [1] = molecular target: T1, Ba/F3-FGFR1-transfected cells (Homo sapiens, UniProt P11362); experiment: Ba/F3-FGFR1 (minus IL3) cellular proliferation assay, Alamar Blue; format: cell-based
# T1 construct: BAF3-FGFR1 (MIN IL3) pIC50; other: minus IL3
# Procedure, shortened: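 Viability was measured by resazurin reduction (fluorescence, 540 nm excitation/590 nm emission) after a 4 h Alamar Blue incubation. This followed 24 h of compound treatment at 37 °C, 5% CO2, of 20000 FGFR1-transfected Ba/F3 cells per well in 10% FBS RPMI-1640.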
# [2] = tested on: Ba/F3-FGFR1-transfected cells; experiment: Ba/F3-FGFR1 (plus IL3) cellular proliferation assay, counterscreen with 10 ng/ml murine IL3; format: cell-based; conditions: plus IL3 (10 ng/ml murine IL3, counterscreen); read-out: BAF3-FGFR1 (PLUS IL3) pIC50 (converted)
# Procedure, shortened: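 Ba/F3-FGFR1 cells (20000/well) in RPMI-1640 with 10% FBS exposed to compound for 24 h at 37° C., 5% CO2, then Alamar Blue (resazurin) added for 4 h; fluorescence read at ex 540/em 590 nm. Counterscreen run identically with 10 ng/ml murine IL3.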
# [3] = molecular target: T2, Ba/F3-FGFR3-transfected cells (Homo sapiens, UniProt P22607); experiment: Ba/F3-FGFR3 (minus IL3) cellular proliferation assay, Alamar Blue; format: cell-based
# T2 construct: BAF3-FGFR3 (MIN IL3) pIC50; other: minus IL3
# Procedure, shortened: (§1)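 Viability readout was resazurin reduction (ex 540/em 590 nm) after 4 h, following 24 h compound treatment at 37 °C of FGFR3-transfected Ba/F3 cells (20000/well, RPMI-1640/10% FBS). IL3-dependent counterscreen used identical conditions plus 10 ng/ml murine IL3.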
# [4] = tested on: Ba/F3-FGFR3-transfected cells; experiment: Ba/F3-FGFR3 (plus IL3) cellular proliferation assay, counterscreen with 10 ng/ml murine IL3; format: cell-based; conditions: plus IL3 (10 ng/ml murine IL3, counterscreen); read-out: BAF3-FGFR3 (PLUS IL3) pIC50 (converted)
# Procedure, shortened: as §1
# [5] = molecular target: T3, Ba/F3-KDR-transfected cells (Homo sapiens, UniProt P35968); experiment: Ba/F3-KDR (minus IL3) cellular proliferation assay, Alamar Blue; format: cell-based
# T3 construct: BAF3-KDR (MIN IL3) pIC50; other: minus IL3
# Procedure, shortened: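 Ba/F3-KDR cells (20000 per well) in phenol red-free RPMI-1640 with 10% FBS were exposed to compound for 24 hours at 37° C, 5% CO2. Alamar Blue (resazurin) was then added for 4 hours, and fluorescence was read at ex. 540 nm/em. 590 nm.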
# T2 sequence (P22607 whole entry, change not shown): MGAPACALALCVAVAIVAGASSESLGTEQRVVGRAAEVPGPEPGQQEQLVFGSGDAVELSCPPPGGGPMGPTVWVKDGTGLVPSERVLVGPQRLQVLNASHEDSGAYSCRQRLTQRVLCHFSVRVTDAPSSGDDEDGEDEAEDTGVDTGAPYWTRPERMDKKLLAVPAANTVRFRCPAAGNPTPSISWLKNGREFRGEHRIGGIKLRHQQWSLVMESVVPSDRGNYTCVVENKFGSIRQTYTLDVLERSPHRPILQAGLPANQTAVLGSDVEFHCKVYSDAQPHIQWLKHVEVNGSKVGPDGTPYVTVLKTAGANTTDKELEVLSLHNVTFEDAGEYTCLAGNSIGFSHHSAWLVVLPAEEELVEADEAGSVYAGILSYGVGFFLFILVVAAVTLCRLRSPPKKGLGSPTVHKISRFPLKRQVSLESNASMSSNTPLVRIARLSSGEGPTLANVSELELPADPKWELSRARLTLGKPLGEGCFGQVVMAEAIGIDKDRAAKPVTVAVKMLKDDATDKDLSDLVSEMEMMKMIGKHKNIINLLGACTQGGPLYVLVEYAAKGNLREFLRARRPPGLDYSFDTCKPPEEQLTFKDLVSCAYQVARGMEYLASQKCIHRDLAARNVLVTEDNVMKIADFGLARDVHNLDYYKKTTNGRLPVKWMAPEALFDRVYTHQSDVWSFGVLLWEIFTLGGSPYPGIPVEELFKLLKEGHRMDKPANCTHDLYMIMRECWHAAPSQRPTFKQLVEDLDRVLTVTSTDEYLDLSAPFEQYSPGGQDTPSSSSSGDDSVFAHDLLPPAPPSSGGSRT
# FGFR4 (h), sequence (P22455 22-802): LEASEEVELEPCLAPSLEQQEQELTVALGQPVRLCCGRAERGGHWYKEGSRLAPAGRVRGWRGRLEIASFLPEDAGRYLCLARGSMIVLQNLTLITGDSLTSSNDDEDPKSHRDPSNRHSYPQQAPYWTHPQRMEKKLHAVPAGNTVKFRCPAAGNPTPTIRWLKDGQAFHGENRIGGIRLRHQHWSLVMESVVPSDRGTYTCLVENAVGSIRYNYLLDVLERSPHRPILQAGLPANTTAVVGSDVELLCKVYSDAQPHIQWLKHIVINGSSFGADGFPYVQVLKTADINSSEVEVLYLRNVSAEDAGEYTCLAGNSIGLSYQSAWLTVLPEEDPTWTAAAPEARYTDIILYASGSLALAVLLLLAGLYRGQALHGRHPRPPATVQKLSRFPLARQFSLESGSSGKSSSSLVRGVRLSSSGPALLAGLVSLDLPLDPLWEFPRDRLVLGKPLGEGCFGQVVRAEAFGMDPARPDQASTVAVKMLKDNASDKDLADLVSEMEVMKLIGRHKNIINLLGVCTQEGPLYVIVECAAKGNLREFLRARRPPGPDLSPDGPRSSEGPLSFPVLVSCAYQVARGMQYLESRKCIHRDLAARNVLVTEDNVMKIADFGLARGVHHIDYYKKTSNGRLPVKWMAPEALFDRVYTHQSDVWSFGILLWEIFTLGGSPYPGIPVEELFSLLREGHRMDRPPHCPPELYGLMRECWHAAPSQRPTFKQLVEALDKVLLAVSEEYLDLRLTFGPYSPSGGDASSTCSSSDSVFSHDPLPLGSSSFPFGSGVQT
# T3 sequence (P35968 whole entry, change not shown): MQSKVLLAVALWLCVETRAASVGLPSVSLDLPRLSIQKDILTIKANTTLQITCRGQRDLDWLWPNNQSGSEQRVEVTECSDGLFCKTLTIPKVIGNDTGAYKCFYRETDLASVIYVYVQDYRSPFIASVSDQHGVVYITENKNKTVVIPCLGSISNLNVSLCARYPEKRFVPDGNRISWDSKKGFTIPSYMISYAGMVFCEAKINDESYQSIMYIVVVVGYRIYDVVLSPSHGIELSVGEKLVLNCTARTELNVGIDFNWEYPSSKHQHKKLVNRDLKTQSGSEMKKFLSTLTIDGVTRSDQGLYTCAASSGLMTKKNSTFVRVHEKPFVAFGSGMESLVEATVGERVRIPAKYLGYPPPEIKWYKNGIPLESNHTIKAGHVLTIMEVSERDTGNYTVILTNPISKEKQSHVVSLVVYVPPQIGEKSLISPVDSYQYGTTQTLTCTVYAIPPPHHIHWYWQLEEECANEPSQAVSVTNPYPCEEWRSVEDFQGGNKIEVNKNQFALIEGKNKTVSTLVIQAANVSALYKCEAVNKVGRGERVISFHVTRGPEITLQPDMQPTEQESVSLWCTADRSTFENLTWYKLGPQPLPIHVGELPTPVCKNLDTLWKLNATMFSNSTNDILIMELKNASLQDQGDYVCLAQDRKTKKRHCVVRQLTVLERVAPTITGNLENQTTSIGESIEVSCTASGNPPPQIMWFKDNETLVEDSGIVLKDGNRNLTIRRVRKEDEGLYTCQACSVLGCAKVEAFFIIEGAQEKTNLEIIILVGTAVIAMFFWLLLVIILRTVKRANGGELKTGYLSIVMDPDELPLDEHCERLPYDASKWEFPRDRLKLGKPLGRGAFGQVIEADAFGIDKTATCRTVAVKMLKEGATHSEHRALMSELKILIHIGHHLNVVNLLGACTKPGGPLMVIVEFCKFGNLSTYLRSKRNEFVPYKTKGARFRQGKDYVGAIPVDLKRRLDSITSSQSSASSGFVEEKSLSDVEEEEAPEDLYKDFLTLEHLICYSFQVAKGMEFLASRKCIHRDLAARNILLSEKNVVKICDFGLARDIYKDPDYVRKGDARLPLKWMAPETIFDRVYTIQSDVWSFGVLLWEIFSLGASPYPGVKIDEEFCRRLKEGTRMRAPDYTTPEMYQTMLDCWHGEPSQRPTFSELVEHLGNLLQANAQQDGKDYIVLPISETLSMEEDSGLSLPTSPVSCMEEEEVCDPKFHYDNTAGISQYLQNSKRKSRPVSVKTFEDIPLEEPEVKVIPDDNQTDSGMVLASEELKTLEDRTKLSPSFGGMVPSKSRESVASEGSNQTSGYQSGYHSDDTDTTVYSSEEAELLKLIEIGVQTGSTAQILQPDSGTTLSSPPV
# FGFR1 (h), sequence (P11362 22-822): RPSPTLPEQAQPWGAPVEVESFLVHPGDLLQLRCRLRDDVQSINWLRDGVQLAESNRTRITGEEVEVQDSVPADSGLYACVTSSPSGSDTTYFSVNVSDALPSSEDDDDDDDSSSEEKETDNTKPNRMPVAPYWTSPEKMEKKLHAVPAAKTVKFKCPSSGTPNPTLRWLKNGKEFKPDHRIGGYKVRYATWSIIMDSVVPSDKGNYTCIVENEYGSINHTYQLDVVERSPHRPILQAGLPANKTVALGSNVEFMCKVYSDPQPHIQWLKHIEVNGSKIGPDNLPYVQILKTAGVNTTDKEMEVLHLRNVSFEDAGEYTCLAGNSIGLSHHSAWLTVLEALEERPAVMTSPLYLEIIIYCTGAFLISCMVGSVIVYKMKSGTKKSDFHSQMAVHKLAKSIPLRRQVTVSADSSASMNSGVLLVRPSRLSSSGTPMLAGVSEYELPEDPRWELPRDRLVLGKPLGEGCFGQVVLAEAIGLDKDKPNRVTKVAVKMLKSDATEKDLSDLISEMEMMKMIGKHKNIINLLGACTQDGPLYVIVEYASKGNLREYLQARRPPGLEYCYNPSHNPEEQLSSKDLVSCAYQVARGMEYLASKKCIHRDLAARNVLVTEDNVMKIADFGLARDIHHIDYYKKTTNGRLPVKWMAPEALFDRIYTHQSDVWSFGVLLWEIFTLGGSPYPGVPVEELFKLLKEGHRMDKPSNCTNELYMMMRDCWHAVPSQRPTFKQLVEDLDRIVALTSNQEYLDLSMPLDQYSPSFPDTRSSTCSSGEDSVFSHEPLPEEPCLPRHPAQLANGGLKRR
# FGFR2 (h), sequence (P21802 22-821): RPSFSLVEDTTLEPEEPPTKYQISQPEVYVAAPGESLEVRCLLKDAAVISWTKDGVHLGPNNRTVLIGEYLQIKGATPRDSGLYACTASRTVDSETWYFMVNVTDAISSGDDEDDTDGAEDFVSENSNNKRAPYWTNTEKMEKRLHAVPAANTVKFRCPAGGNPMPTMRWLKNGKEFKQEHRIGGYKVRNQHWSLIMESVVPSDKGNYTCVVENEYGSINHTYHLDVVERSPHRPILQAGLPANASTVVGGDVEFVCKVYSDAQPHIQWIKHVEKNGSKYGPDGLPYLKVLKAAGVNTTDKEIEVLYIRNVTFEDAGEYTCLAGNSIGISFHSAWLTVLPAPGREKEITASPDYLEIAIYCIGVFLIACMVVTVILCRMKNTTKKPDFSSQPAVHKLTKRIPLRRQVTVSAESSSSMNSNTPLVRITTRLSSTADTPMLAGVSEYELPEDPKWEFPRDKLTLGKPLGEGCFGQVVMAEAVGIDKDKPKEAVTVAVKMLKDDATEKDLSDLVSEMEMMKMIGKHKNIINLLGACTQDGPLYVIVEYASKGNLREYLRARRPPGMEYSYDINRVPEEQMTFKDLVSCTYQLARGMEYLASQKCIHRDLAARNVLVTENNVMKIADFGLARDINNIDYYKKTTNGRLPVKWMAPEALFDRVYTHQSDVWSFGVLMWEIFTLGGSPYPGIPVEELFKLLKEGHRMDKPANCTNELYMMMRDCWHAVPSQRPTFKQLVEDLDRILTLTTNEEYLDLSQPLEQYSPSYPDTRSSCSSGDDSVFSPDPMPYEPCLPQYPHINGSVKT
SMILES,melting point [°C],also measured
COc1cc(OC)cc(N(Cc2ncc[nH]2)c2ccc3ncc(-c4cnn(C)c4)nc3n2)c1 (as salt: hydrochloride) (hydrate or solvate) [Compound 24],> 260,–
CNCCn1/c(=N/c2c(F)c(OC)cc(OC)c2F)ccc2ncc(-c3cnn(C)c3)nc21 [Compound 4],174,IC50 (FGFR1 (h)): 1.26 nM; IC50 (FGFR2 (h)): 3.98 nM; IC50 (FGFR3 (h)): 3.16 nM; IC50 (FGFR4 (h)): 7.94 nM; IC50 (KDR (h)): 63.1 nM; BAF3-FGFR1 (MIN IL3) pIC50 [1]: 7.3; IC50 [2]: > 10000 nM; BAF3-FGFR3 (MIN IL3) pIC50 [3]: 6.9; IC50 [4]: > 10000 nM; BAF3-KDR (MIN IL3) pIC50 [5]: 5.4
COc1cc(OC)cc(N(Cc2ncc[nH]2)c2ccc3ncc(-c4cnn(C)c4)nc3n2)c1 (as salt: phosphate) [Compound 24],253,–
COc1cc(OC)cc(N(Cc2ncc[nH]2)c2ccc3ncc(-c4cnn(C)c4)nc3n2)c1 (as salt: fumarate) [Compound 24],222,–
COc1cc(/N=c2\ccc3ncc(-c4cnn(C)c4)nc3n2CC2CCCCO2)cc(OC)c1 (stereo not shown),210,–
CNCCN(c1ccc2ncc(-c3cn[nH]c3)nc2n1)c1c(F)c(OC)cc(OC)c1F (as salt: HCl) (hydrate or solvate) [Compound 106],250,–
COc1cc(OC)c(F)c(N(Cc2ncc[nH]2)c2ccc3ncc(-c4cnn(C)c4)nc3n2)c1 (as salt: phosphate) [Compound 23],175,–
COc1cc(OC)c(F)c(N(Cc2ncc[nH]2)c2ccc3ncc(-c4cnn(C)c4)nc3n2)c1 (as salt: hydrochloric acid salt) [Compound 23],216,–
COc1cc(OC)c(F)c(N(Cc2ncc[nH]2)c2ccc3ncc(-c4cnn(C)c4)nc3n2)c1 (as salt: lactate) [Compound 23],118,–
COc1cc(OC)c(F)c(N(Cc2ncc[nH]2)c2ccc3ncc(-c4cnn(C)c4)nc3n2)c1 (as salt: fumarate) [Compound 23],186,–
CNCCN(c1ccc2ncc(-c3cnn(C)c3)nc2n1)c1c(F)c(OC)cc(OC)c1F (hydrate or solvate) [Compound 3],134,–
COc1cc(OC)cc(N(CCN2CCOCC2)c2ccc3ncc(-c4cnn(C)c4)nc3n2)c1 (as salt: hydrochloride) (hydrate or solvate) [Compound 146],143,–
